Our source for the protection values is patent US8314269B2, “N-(1-methyl-2phenylethyl)benzamide derivatives” (Bayer Cropscience AG, priority 2005, dated 2012).

For the assay, the system named is Pyrenophora teres. Briefly: In vivo test on Pyrenophora teres (barley net blotch). The note with it: 500 ppm, preventive spray on barley plants (Express), grading 12 days after contamination vs control plants. The protocol: The active ingredients tested are prepared by homogenisation in a mixture of acetone/tween/DMSO, then diluted with water to obtain the desired active material concentration.
Barley plants (Express variety), sown on a 50/50 peat soil-pozzolana substrate in starter cups and grown at 12° C., are treated at the 1-leaf stage (10 cm tall) by spraying with the active ingredient prepared as described above. Plants, used as controls, are treated with the mixture of acetone/tween/DMSO/water not containing the active material.
After 24 hours, the plants are contaminated by spraying them with an aqueous suspension of Pyrenophora teres spores (12,000 spores per ml). The spores are collected from a 12-day-old culture. The contaminated barley plants are incubated for 24 hours at about 20° C. and at 100% relative humidity, and then for 12 days at 80% relative humidity.
Grading is carried out 12 days after the contamination, in comparison with the control plants.

As for `CC(Cc1ccc(Cl)cc1)NC(=O)c1ccccc1C(F)(F)F` (stereo not shown) [Compound 1], the protection entry is given as “at least 70%”.
